Assay results published in patent US12172959B2, “Mono- or di-substituted indole derivatives as dengue viral replication inhibitors” (priority 2015, dated 2024).

Columns and labels:
Type in all cases: cell-based
DENV-4 strain H241 = test: Tetravalent RT-qPCR assay Protocol A, serotype 4 H241; conditions: Dengue virus, DENV4, 72 h; Protocol A, RT-qPCR serotype 4 H241, Vero cells, day 3; read-out: EC50
Protocol: The antiviral activity of the compounds of the invention was tested against DENV-1 strain TC974#666 (NCPV; Table 6), DENV-2 strain 16681 (Table 7), DENV-3 strain H87 (NCPV; Table 8) and DENV-4 strains H241 (NCPV; Table 9A) and SG/06K2270DK1/2005 (Eden; Table 9B) in a RT-qPCR assay. Therefore, Vero cells were infected with either DENV-1, or -2, or -3, or -4 in the presence or absence of test compounds. At day 3 post-infection, the cells were lysed and cell lysates were used to prepare cDNA of both a viral target (the 3′UTR of DENV; Table 2) and a cellular reference gene (β-actin, Table 2). Subsequently, a duplex real time PCR was performed on a Lightcycler480 instrument. The generated Cp value is inversely proportional to the amount of RNA expression of these targets. Inhibition of DENV replication by test compound results in a shift of Cp's for the 3′UTR gene. On the other hand, if a test compound is toxic to the cells, a similar effect on β-actin expression will be observed. The comparative ΔΔCp method is used to calculate EC50, which is based on the relative gene expression of the target gene (3′UTR) normalized with the cellular housekeeping gene (β-actin).
The culture medium consisted of minimal essential medium supplemented with 2% of heat-inactivated fetal calf serum, 0.04% gentamycin (50 mg/mL) and 2 mM of L-glutamine. Vero cells, obtained from ECACC, were suspended in culture medium and 75 μL/well was added in 96-well plates (10000 cells/well), which already contain the antiviral compounds. […] In addition, each plate contains wells which are assigned as virus controls (containing cells and virus in the absence of compound) and cell controls (containing cells in the absence of virus and compound). Once the cells were added in the plates, the plates were incubated in a fully humidified incubator (37° C., 5% CO2) until the next day. Dengue viruses serotype-1, 2, 3 and 4 were diluted in order to obtain a Cp of ˜22-24 in the assay. Therefore, 25 μL of virus suspension was added to all the wells containing test compound and to the wells assigned as virus control. In parallel, 25 μL of culture medium was added to the cell controls. Next, the plates were incubated for 3 days in a fully humidified incubator (37° C., 5% CO2). After 3 days, the supernatant was removed from the wells and the cells were washed twice with ice-cold PBS (˜100 μL). The cell pellets within the 96-well plates were stored at −80° C. for at least 1 day. Next, RNA was extracted using the Cells-to-CT™ lysis kit, according to the manufacturer's guideline (Life Technologies). The cell lysates can be stored at −80° C. or immediately used in the reverse transcription step.
In preparation of the reverse transcription step, mix A (table 3A) was prepared and 7.57 μL/well was dispensed in a 96-well plate. After addition of 5 μL of the cell lysates, a five minute denaturation step at 75° C. was performed (table 3B). Afterwards, 7.43 μL of mix B was added (table 3C) and the reverse transcription step was initiated (table 3D) to generate cDNA.
Finally, a RT-qPCR mix was prepared, mix C (table 4A), and 22.02 μL/well was dispensed in 96-well LightCycler qPCR plates to which 3 μL of cDNA was added and the qPCR was performed according to the conditions in table 4B on a LightCycler 480.
Using the LightCycler software and an in-house LIMS system, dose response curves for each compound were calculated and the half maximal effective concentration (EC50) and the half maximal cytotoxic concentration (CC50) were determined.

in vitro = conditions: African green monkey, CC50
Protocol: (§1) Potential cytotoxic effects of the compounds were evaluated in uninfected quiescent Vero-B or Vero-M cells. Cells were seeded at 5×10^4 cells/well in a 96-well plate in the presence of two-, three- or five-fold serial dilutions (ranging from 50 μg/mL-0.0038 μg/mL, 50 μg/mL-0.0076 μg/mL, and 50 μg/mL-0.00013 μg/mL, respectively) of compound and incubated for 4 to 7 days. Culture medium was discarded and 100 μL 3-(4,5-dimethylthiazol-2-yl)-5-(3-carboxy-methoxyphenyl)-2-(4-sulfophenyl)-2H-tetrazolium/phenazinemethosulfate (MTS/PMS; Promega, Leiden, The Netherlands) in PBS was added to each well. Following a 2-hour incubation period at 37° C., the optical density was determined at 498 nm. Cytotoxic activity was calculated using the following formula: % cell viability=100×(ODCompound/ODCC), where ODCompound and ODCC correspond to the optical density at 498 nm of the uninfected cell cultures treated with compound and that of uninfected, untreated cell cultures, respectively. The 50% cytotoxic concentration (i.e., the concentration that reduces the total cell number with 50%; CC50) was calculated using linear interpolation.

[1] = test system: uninfected quiescent Vero-B or Vero-M cells; test: in vitro; conditions: African green monkey
Protocol: as §1

| Structure (SMILES) | EC50 (DENV-4 strain H241) [µM] | CC50 (in vitro) [µM] | CC50 [1] [µM] |
| --- | --- | --- | --- |
| COc1cc(NC(C(=O)c2c[nH]c3cc(F)ccc23)c2ccc(Cl)cc2OC)cc(S(C)(=O)=O)c1 (single isomer, unassigned) [Compound 1A, 2-(4-chloro-2-methoxyphenyl)-1-(6-fluoro-1H-indol-3-yl)-2-((3-methoxy-5-(methylsulfonyl)phenyl)amino)ethanone] | 0.093 | 8 | 11 |
| COc1cc(NC(C(=O)c2c[nH]c3c(C)c(F)ccc23)c2ccc(Cl)cc2OC)cc(S(C)(=O)=O)c1 (single isomer, unassigned) [Compound 2A, 2-(4-chloro-2-methoxyphenyl)-1-(6-fluoro-7-methyl-1H-indol-3-yl)-2-((3-methoxy-5-(methylsulfonyl)phenyl)amino)ethanone] | 0.083 | 7.3 | 11 |
| COc1cc(NC(C(=O)c2c[nH]c3cc(OC)c(C)cc23)c2ccc(Cl)cc2OC)cc(S(C)(=O)=O)c1 (single isomer, unassigned) [Compound 4A, 2-(4-chloro-2-methoxyphenyl)-2-((3-methoxy-5-(methyl-sulfonyl)phenyl)amino)-1-(6-methoxy-5-methyl-1H-indol-3-yl)ethanone] | 0.053 | 4.3 | 6.6 |
| COc1cc(NC(C(=O)c2c[nH]c3cc(OC)c(F)cc23)c2ccc(Cl)cc2OC)cc(S(C)(=O)=O)c1 (single isomer, unassigned) [Compound 5A, 2-(4-chloro-2-methoxyphenyl)-1-(5-fluoro-6-methoxy-1H-indol-3-yl)-2-((3-methoxy-5-(methylsulfonyl)phenyl)amino)ethanone] | 0.1 | 9.2 | – |
| COc1cc(NC(C(=O)c2c[nH]c3c(C)c(OC)ccc23)c2ccc(Cl)cc2OC)cc(S(C)(=O)=O)c1 (single isomer, unassigned) [Compound 6A, 2-(4-chloro-2-methoxyphenyl)-2-((3-methoxy-5-(methyl-sulfonyl)phenyl)amino)-1-(6-methoxy-7-methyl-1H-indol-3-yl)ethanone] | 0.095 | > 92 | > 92 |
